From patent publication US12133921B2, “Capsule filling composition, method of producing capsule formulation with the use of capsule filling composition, and capsule formulation” (SHIN-ETSU CHEMICAL CO., LTD., priority 2019, dated 2024)

Experiment: Compressibility index of the active ingredient
Assay type: physicochemical
Conditions: 2,000 mg compressed at 0.5 N, remaining weight after three droppings from 1 cm, n=5
Procedure: The active ingredient weighing 2,000 mg was introduced into a polycarbonate tube (a hollow cylindrical form with an inner diameter of 12.5 mm and a height of 52.0 mm; “polycarbonate spacer (hollow) CPC (CPC-1252); manufactured by Hirosugi Keiki Co., Ltd.) which was left to stand on a stainless steel bat. Next, by using a tension and compression testing machine (“SDT—503 NB”; manufactured by Imada Seisakusho Co., Ltd.), the active ingredient within the polycarbonate tube was compressed by a cylindrical tool having a contact surface of 11.28 mmΦ in diameter to prepare a compressed product (compression condition; speed: 100 mm/min., load: 0.5 N, load maintaining time: 1 sec.). […]
The lifted polycarbonate tube was released from the fingers, and dropped down. After repeating this procedure three times, the remaining weight of the polycarbonate tube containing the compressed product of the active ingredient was measured as a weight after test.
The amount of powder flowing out from the polycarbonate tube was determined by subtracting the weight after test from the weight before test. Furthermore, the remaining weight of the compressed product of the active ingredient was determined by subtracting the amount of powder flowing out from the polycarbonate tube from the weight before test. […]

compressibility index: 5%
SMILES: Cc1cc2nc3c(=O)[nH]c(=O)nc-3n(C[C@H](O)[C@H](O)[C@H](O)CO)c2cc1C [vitamin B2, riboflavin]
